Laboratory results reported in article PMC8621570, “Mechanistic Studies of Antibiotic Adjuvants Reducing Kidney’s Bacterial Loads upon Systemic Monotherapy” (Pharmaceutics, 2021).

Experiments:
E. coli 25922 = experiment: Thigh infection model; format: in vivo, mouse; details: 12.5 mg/kg S.C at 1 and 3 h post-infection, CFU/thigh at 24 h, 8 mice per group
Experimental: Animals: All animal studies were performed using male ICR mice (25 ± 2 gr). The Technion Animal Care and Use committee approved all procedures, care, and handling of animals. Ethics approval codes: IL0800519, IL0640421, IL0550618, IL1811217.
For efficacy assessments, three infection models were used including one with topical treatment and two with systemic treatment. • Excisional skin wound infection model: mice were anesthetized by intraperitoneal administration of a mixture of ketamine 100 mg/kg and xylazine 5 mg/kg in PBS and their backs shaved with electric clippers. The following day mice were similarly anesthetized and were administrated (S.C) 0.05 mg/kg buprenorphine (for pain relief). A 5 mm diameter piece of skin was removed from the middle of the shaved back, with sterile biopsy punch resulting in a full-thickness injury. A total of 20 µL of a mid-logarithmic culture, containing 5 × 10^6 CFU P. aeruginosa 27853 were applied on the wound. […] The number of viable bacteria was determined after overnight incubation at 37 °C. […] The number of viable bacteria was determined after overnight incubation at 37 °C. […] The number of viable bacteria was determined after overnight incubation at 37 °C. […]

[1] = Blood circulating concentrations (preliminary PK); format: in vivo, mouse; details: ICR mice, single S.C 12.5 mg/kg, LC-MS
Experimental: C14(ω5)OOc10O was subjected to preliminary pharmacokinetics (PK) analysis to determine its plasma concentrations or organ bio-distribution following S.C administration to non-neutropenic pathogen-free mice. OAC quantification was performed by LC-MS as follows: blood was drawn at various time intervals and plasma was separated by centrifugation (5000 RCF, 10 min). Organs were excised and homogenized. Then, OAC was extracted from both plasma and organ homogenates by incubation with 50% acetonitrile: 50% methanol at room temperature with shaking for 30 min, and subsequent centrifugation (5000 RCF, 10 min). Supernatants were diluted two-fold in distilled water and analyzed by LC-MS (ULC ultimate 3000 DIONEX, MS BRUKER Maxis impact). Quantification was based on standard calibration curves, prepared by spiking fresh mice plasma (for PK) or water (for organ bio-distribution) with various amounts of the tested OAC (final concentrations from 2.5 to 50 µg/mL) and subjected to an identical procedure as described above.
Figure 10 Systemic efficacy studies using mouse infection models. (a,b) Data points represent colony forming unit (CFU) counts harvested from infected mice (8 and 10 mice per group, respectively). Panel (a) depicts results of the thigh infection model where mice were inoculated intramuscularly with E. coli 25922 (upper dashed line represents the inoculum) and treated subcutaneously with C14(ω5)OOc10O (12.5 mg/kg) at 1 and 3 h post-infection. Panel (b) depicts results of the urinary tract infection model where mice were infected with E. coli UPEC CFT073 by intra-urethral injection and treated subcutaneously with C14(ω5)OOc10O (12.5 mg/kg) at 1 and 6 h post-infection. Solid circles denote mice that died before the experimental endpoint. […] Panels (c,d) show the evolution of C14(ω5)OOc10O concentrations in mouse plasma (c) or in organs (d) after single subcutaneous administration (12.5 mg/kg) to ICR mice (data in c are from two mice/time points except for 60 and 180 that were 8 and 3, respectively) as determined by liquid chromatography–mass spectrometry. […]

For `CCCCC=CCCCCCCCC(=O)N[C@@H](CCCN)C(=O)N[C@@H](CCCN)C(=O)NCCCCCCCCCC(=O)N[C@@H](CCCN)C(N)=O` [C14(ω5)OOc10O], the “Effect on thigh bacterial loads” value (E. coli 25922) was “unable to reduce bacterial loads”, the “Time for which potentiating plasma concentrations (>2.5 µM) were maintained after the maximum” value [1] was “at least 3 h” and the Cmax ([1]; mouse, plasma, sc, mean ± SD, read-out: Maximal plasma concentration) was 8.7 ± 2.3 µM. It also gave a Tmax ([1]; mouse, plasma, sc, read-out: Time to maximal plasma concentration) of ~1 h.
